Results from patent US5656630A, “Method of combating fungus” (American Cyanamid Company, priority 1993, dated 1997).
≈ marks a conversion by molar mass, not a printed value. Read-outs that look alike come from different tables or passages of the source.

Columns and labels:
[1] = test system: Phytophthora infestans; format: in vivo, Phytophthora infestans (on tomato plants cv Prof. Rudloff); details: soil drench 2 days before infection, tomato
[2] = Water solubility; format: physicochemical
[3] = test system: Phytophthora infestans; details: sunlight excluded; only the Z-isomer; reported in Brighton Crop Protection Conference, 1988, 17-24; cited from earlier work
[4] = test system: tomato plants; details: in vivo
[5] = 6.25 ppm active ingredient (0.11 kg/ha)
[6] = 12.5 ppm active ingredient (0.2 kg/ha)
[7] = 25 ppm active ingredient (0.44 kg/ha)
[8] = 50 ppm active ingredient (0.88 kg/ha)
[9] = 100 ppm active ingredient (1.76 kg/ha)

Compound: COc1ccc(/C(=C/C(=O)N2CCOCC2)c2ccc(Cl)cc2)cc1OC [E-isomer]
- Activity in % (ABBOTT formula, diseased leaf area) [1, 5]: 16%
- Activity in % (ABBOTT formula, diseased leaf area) [1, 6]: 47%
- Activity in % (ABBOTT formula, diseased leaf area) [1, 7]: 71%
- Activity in % (ABBOTT formula, diseased leaf area) [1, 8]: 94%
- Activity in % (ABBOTT formula, diseased leaf area) [1, 9]: 97%
- solubility [2]: 30 µg/mL (≈ 77.3 µM)

Compound: COc1ccc(C(=CC(=O)N2CCOCC2)c2ccc(Cl)cc2)cc1OC [E/Z 50:50, 4-[3-(4-chlorophenyl)-3-(3,4-dimethoxyphenyl)-acryloyl]morpholine]
- Activity in % (ABBOTT formula, diseased leaf area) [1, 5]: 91%
- Activity in % (ABBOTT formula, diseased leaf area) [1, 6]: 98%
- Activity in % (ABBOTT formula, diseased leaf area) [1, 7]: 100%
- Activity in % (ABBOTT formula, diseased leaf area) [1, 8]: 100%
- Activity in % (ABBOTT formula, diseased leaf area) [1, 9]: 100%

Compound: COc1ccc(/C(=C\C(=O)N2CCOCC2)c2ccc(Cl)cc2)cc1OC [Z-isomer, Z-isomer of 4-[3-(4-chlorophenyl)-3-(3,4-dimethoxyphenyl)acryloyl]morpholine]
- fungitoxicity in vitro [3]: fungitoxic
- Activity in % (ABBOTT formula, diseased leaf area) [1, 5]: 100%
- Activity in % (ABBOTT formula, diseased leaf area) [1, 6]: 100%
- Activity in % (ABBOTT formula, diseased leaf area) [1, 7]: 100%
- Activity in % (ABBOTT formula, diseased leaf area) [1, 8]: 100%
- Activity in % (ABBOTT formula, diseased leaf area) [1, 9]: 100%
- solubility [2]: 7 µg/mL (≈ 18 µM)
- initial concentrations in the leaves, Z-isomer relative to E-isomer [4]: about 5 times higher
